11 compounds from ChEMBL document CHEMBL1201862, “PubChem BioAssay data set” (2004) can be followed below.

Each structure is given as a SMILES string.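 Tested at 5 concentrations; 48 h exposure; 96-well plates; endpoints linearly interpolated, else capped at highest concentration. GI50 = concentration required for 50% inhibition of growth.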 The source made the active and inactive calls. Rule as the data show it: active = GI50 up to about 1.1 µM and inactive = higher.

Some test systems named below: EKVX; KM12; CAKI-1; HL-60; SK-MEL-2; SF-295; HCT-116; HOP-62; MDA-N; SK-MEL-5; HOP-92; SK-OV-3; SNB-75; OVCAR-8; IGROV-1; HCC 2998; UO-31; SK-MEL-28; SNB-19.
Holding throughout (test): DTP human tumour cell line panel, 48 h

As for `O=S(=O)(N=[Se](=O)(c1ccccc1)c1ccccc1)c1ccccc1`, the GI50 (as a rule, the concentration at which growth is held to half of that of the control) with EKVX was > 100 µM (inactive); in the assay on KM12, > 100 µM (inactive); in the assay with CAKI-1, > 100 µM (inactive); with HL-60, 25.1 µM (inactive); with SK-MEL-2, 48.3 µM (inactive); in the assay with SF-295, > 100 µM (inactive). Moreover, the GI50 with HCT-116, in the assay on HOP-62, in the assay on MDA-N, in the assay with SK-MEL-5, in the assay on HOP-92 and in the assay on SK-OV-3 was > 100 µM (inactive) in each case. Moreover, the GI50 was > 100 µM (inactive) in the assay with SNB-75; > 100 µM (inactive) in the assay with OVCAR-8; 28 µM (inactive) in the assay with IGROV-1; > 100 µM (inactive) with HCC 2998; 58.1 µM (inactive) in the assay on UO-31; > 100 µM (inactive) in the assay on SK-MEL-28. In addition, in the assay on SNB-19, the GI50 was 60 µM (inactive).

Take `CC(/C=C/C(=O)c1sc(-n2nc(-c3ccccc3)cc2-c2ccccc2)nc1C)=C\c1ccccc1`: the GI50 is 5.05 µM (inactive) with EKVX; 23.8 µM (inactive) with KM12; 20.7 µM (inactive) in the assay on CAKI-1; 36.3 µM (inactive) in the assay with HL-60; 34.3 µM (inactive) in the assay with SK-MEL-2; > 10 µM (inactive) in the assay on SF-295. Moreover, the GI50 in the assay with HCT-116 is 62.5 µM (inactive); in the assay with HOP-62 it was > 10 µM (inactive); in the assay with SK-MEL-5, 15.5 µM (inactive); in the assay on HOP-92, 8.69 µM (inactive); with SK-OV-3, 38.4 µM (inactive); in the assay with SNB-75, 2.02 µM (inactive). Further, the GI50 in the assay on OVCAR-8 was 17.5 µM (inactive); in the assay on IGROV-1 it was 98.4 µM (inactive); with HCC 2998, 23.7 µM (inactive); with UO-31 it was 24 µM (inactive); in the assay on SK-MEL-28 it was > 10 µM (inactive); in the assay on SNB-19, 64.3 µM (inactive).

For `C=C(CO)CC(O)c1ccccc1` (stereo not drawn), the GI50 with EKVX, with KM12, in the assay with HL-60, in the assay on SK-MEL-2, with SF-295 and in the assay with HCT-116 was > 100 µM (inactive) throughout. In addition, the GI50 with HOP-62, with SK-MEL-5, in the assay with HOP-92, in the assay with SK-OV-3, in the assay with SNB-75 and with OVCAR-8 was > 100 µM (inactive) each time. Besides, the GI50 in the assay with IGROV-1, in the assay on HCC 2998, with UO-31, with SK-MEL-28 and with SNB-19 was > 100 µM (inactive) throughout.

`CN1C(=O)C2C(C1=O)C1(O)c3ccccc3C2(N)c2ccccc21` (stereo not drawn): the GI50 in the assay on EKVX, in the assay on KM12, in the assay on CAKI-1, with HL-60, in the assay with SK-MEL-2 and in the assay with SF-295 was > 100 µM (inactive) in each case. Besides, the GI50 in the assay on HCT-116, in the assay with HOP-62, in the assay with SK-MEL-5, in the assay with HOP-92, with SK-OV-3 and in the assay with SNB-75 was > 100 µM (inactive) in each case. Besides, the GI50 in the assay on OVCAR-8, in the assay on IGROV-1, with HCC 2998, in the assay on UO-31, in the assay on SK-MEL-28 and in the assay on SNB-19 was > 100 µM (inactive) each time.

For `O=C(c1cc2c(C(F)(F)F)onc2c2ccccc12)C(F)(F)F`, the GI50 was 7.38 µM (inactive) in the assay with EKVX; 0.746 µM (active) with KM12; 2.78 µM (inactive) in the assay on CAKI-1; 0.984 µM (active) in the assay on HL-60; 3.4 µM (inactive) in the assay with SK-MEL-2; 2.58 µM (inactive) with SF-295. Further, the GI50 in the assay on HCT-116 is 0.0452 µM (active); with HOP-62, 2.44 µM (inactive); in the assay with SK-MEL-5, 4.16 µM (inactive); in the assay with HOP-92, 1.58 µM (inactive); in the assay with SK-OV-3, 12.3 µM (inactive); in the assay with SNB-75 it was 1.16 µM (inactive). Besides, the GI50 in the assay on OVCAR-8 is 1.78 µM (inactive); in the assay on IGROV-1, 2.74 µM (inactive); with HCC 2998, 4.55 µM (inactive); in the assay with UO-31, 1.7 µM (inactive); in the assay on SK-MEL-28, 3.44 µM (inactive); with SNB-19, 3.8 µM (inactive).

For `CCCCCCCCC#CCCCCCCC(F)C(=O)O` (stereo not drawn), the GI50 with EKVX was 43.1 µM (inactive); in the assay with KM12 it was > 100 µM (inactive); in the assay on HL-60 it was 25 µM (inactive); in the assay on SK-MEL-2, > 100 µM (inactive); in the assay with SF-295 it was > 100 µM (inactive); with HCT-116, > 100 µM (inactive). The GI50 in the assay on HOP-62, with SK-MEL-5, with HOP-92, with SK-OV-3, with SNB-75 and in the assay with OVCAR-8 was > 100 µM (inactive) throughout. In addition, the GI50 in the assay on IGROV-1, in the assay on HCC 2998, in the assay with UO-31, in the assay on SK-MEL-28 and in the assay with SNB-19 was > 100 µM (inactive) throughout.

On to `[N-]=[N+]=NI1OC(=O)c2ccccc21`, for which the GI50 with EKVX was > 100 µM (inactive); in the assay with KM12, > 100 µM (inactive); in the assay on CAKI-1, 23.8 µM (inactive); in the assay on HL-60, 40.5 µM (inactive); in the assay with SK-MEL-2, > 100 µM (inactive); with SF-295, > 100 µM (inactive). Further, the GI50 in the assay on HCT-116 is > 100 µM (inactive); with HOP-62, > 100 µM (inactive); with HOP-92 it was 44.9 µM (inactive); in the assay on SK-OV-3, > 100 µM (inactive); in the assay on SNB-75, > 100 µM (inactive); with OVCAR-8, > 100 µM (inactive). For the same compound, the GI50 with IGROV-1 was > 100 µM (inactive); with HCC 2998 it was > 100 µM (inactive); with UO-31, > 100 µM (inactive); with SK-MEL-28, 47.2 µM (inactive); in the assay with SNB-19 it was > 100 µM (inactive).

Take `CC1=C(/C=C/C(C)=C/C=C/C(C)=C/CO)C(C)(C)CCC1` [RETINOL]: the GI50 is 27.1 µM (inactive) in the assay with EKVX; 36.1 µM (inactive) in the assay on KM12; 42 µM (inactive) in the assay with CAKI-1; 23.4 µM (inactive) in the assay with HL-60; 20.7 µM (inactive) in the assay with SK-MEL-2; 24.2 µM (inactive) with SF-295. The GI50 with HOP-62 is 22.1 µM (inactive); in the assay on MDA-N, 36.5 µM (inactive); in the assay on SK-MEL-5, 17.1 µM (inactive); in the assay on SK-OV-3, 35.2 µM (inactive); with SNB-75 it was 0.0279 µM (active); with IGROV-1 it was 29.2 µM (inactive). For the same compound, the GI50 with HCC 2998 is 17.3 µM (inactive); in the assay on UO-31, 17.7 µM (inactive); with SK-MEL-28 it was 25.5 µM (inactive); in the assay with SNB-19, 22.1 µM (inactive).

Regarding `CC(C)N(C(=O)C12C3C4C5(C#N)C3C1(C#N)C5C42I)C(C)C` (stereo not drawn), the GI50 in the assay with EKVX is > 100 µM (inactive); in the assay with KM12, > 100 µM (inactive); in the assay on CAKI-1 it was > 100 µM (inactive); with HL-60, > 41 µM (inactive); in the assay on SK-MEL-2, > 100 µM (inactive); in the assay with SF-295 it was > 100 µM (inactive). The GI50 is 17.4 µM (inactive) in the assay with HCT-116; > 100 µM (inactive) in the assay with HOP-62; > 100 µM (inactive) in the assay on SK-MEL-5; > 100 µM (inactive) in the assay on HOP-92; > 100 µM (inactive) with SK-OV-3; > 59 µM (inactive) with SNB-75. Besides, the GI50 is > 85.5 µM (inactive) in the assay on OVCAR-8; > 100 µM (inactive) in the assay with IGROV-1; > 100 µM (inactive) in the assay on HCC 2998; > 100 µM (inactive) with UO-31; > 100 µM (inactive) in the assay with SK-MEL-28; > 100 µM (inactive) in the assay on SNB-19.

Take `COC(=O)[C@]12CC=C3O[C@@H]4OC5(CCCCC5)O[C@@H]4C3[C@@H]1C(=O)CCC2=O` (stereo partly drawn): the GI50 in the assay on EKVX, in the assay on KM12, with CAKI-1, in the assay on HL-60, with SK-MEL-2 and with SF-295 was > 100 µM (inactive) each time. The GI50 with HCT-116, with HOP-62, in the assay with SK-MEL-5, in the assay with HOP-92, in the assay with SK-OV-3 and in the assay with SNB-75 was > 100 µM (inactive) each time. Also, the GI50 in the assay on OVCAR-8, with IGROV-1, with HCC 2998, in the assay on UO-31, in the assay on SK-MEL-28 and in the assay on SNB-19 was > 100 µM (inactive) each time.

For `c1cc(-c2cn3c(n2)SCC3)ccn1`, the GI50 in the assay on EKVX is > 68.9 µM (inactive); with KM12, > 100 µM (inactive); in the assay on CAKI-1, > 100 µM (inactive); in the assay with HL-60 it was > 38.1 µM (inactive); in the assay with SK-MEL-2, > 100 µM (inactive); in the assay on SF-295, > 100 µM (inactive). For the same compound, the GI50 was > 42.4 µM (inactive) in the assay on HCT-116; > 100 µM (inactive) in the assay on HOP-62; > 100 µM (inactive) with SK-MEL-5; > 100 µM (inactive) in the assay with HOP-92; > 100 µM (inactive) in the assay on SK-OV-3; > 100 µM (inactive) in the assay with SNB-75. For the same compound, the GI50 in the assay with OVCAR-8, with IGROV-1, with HCC 2998, with UO-31 and in the assay with SNB-19 was > 100 µM (inactive) each time.
